# Experimental data reported in PMC10709440, “High-throughput ligand profile characterization in novel cell lines expressing seven heterologous insect olfactory receptors for the detection of volatile plant biomarkers” (Scientific Reports, 2023).
# What was measured:
# OR85b = tested on: OR85b; design: method as in earlier work; details: DoOR database value; ref DoOR; cited from earlier work
# OR10a = tested on: OR10a; design: method as in earlier work; details: DoOR database value; ref DoOR; cited from earlier work
# OR47a = tested on: OR47a; design: method as in earlier work; details: DoOR database value; ref DoOR; cited from earlier work
# OR13a = tested on: OR13a; design: method as in earlier work; details: DoOR database value; ref DoOR; cited from earlier work
# OR98a = tested on: OR98a; design: method as in earlier work; details: DoOR database value; ref DoOR; cited from earlier work
# OR49b = tested on: OR49b; design: method as in earlier work; details: DoOR database value; ref DoOR; cited from earlier work
# OR71a = tested on: OR71a; design: method as in earlier work; details: DoOR database value; ref DoOR; cited from earlier work
# Drosophila OR85b = target: T1, Drosophila OR85b (Drosophila melanogaster, UniProt Q9VHQ7); test: Calcium ion fluorescence (GCaMP6) assay, OR85b stable HEK293 cell line; type: cell-based; details: for activation at 1 µM / activation at 10 µM / activation at 100 µM: HEK293, read-out: OR85b response (VUAA1-normalized response); for Average response: OR85b cell line, VUAA1-normalized response, mean of biological replicates; for DF norm AVERAGE OR85b: threshold 0.05, below shown as 0
# T1 construct: expressed in transfected cells
# T1 sequence (Q9VHQ7 1-390): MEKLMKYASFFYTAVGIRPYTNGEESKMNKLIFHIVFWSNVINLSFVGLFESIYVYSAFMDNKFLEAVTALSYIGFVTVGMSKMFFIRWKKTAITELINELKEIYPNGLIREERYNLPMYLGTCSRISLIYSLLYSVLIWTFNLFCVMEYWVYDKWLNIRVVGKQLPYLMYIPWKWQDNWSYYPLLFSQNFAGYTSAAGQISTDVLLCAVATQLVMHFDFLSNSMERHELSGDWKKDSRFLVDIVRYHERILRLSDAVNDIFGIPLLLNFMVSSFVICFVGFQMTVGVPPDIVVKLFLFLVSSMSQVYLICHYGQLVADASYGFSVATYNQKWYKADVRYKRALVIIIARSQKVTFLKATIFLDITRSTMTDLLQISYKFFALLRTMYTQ
# T1 sequence (Q9VNB5 1-486 partner): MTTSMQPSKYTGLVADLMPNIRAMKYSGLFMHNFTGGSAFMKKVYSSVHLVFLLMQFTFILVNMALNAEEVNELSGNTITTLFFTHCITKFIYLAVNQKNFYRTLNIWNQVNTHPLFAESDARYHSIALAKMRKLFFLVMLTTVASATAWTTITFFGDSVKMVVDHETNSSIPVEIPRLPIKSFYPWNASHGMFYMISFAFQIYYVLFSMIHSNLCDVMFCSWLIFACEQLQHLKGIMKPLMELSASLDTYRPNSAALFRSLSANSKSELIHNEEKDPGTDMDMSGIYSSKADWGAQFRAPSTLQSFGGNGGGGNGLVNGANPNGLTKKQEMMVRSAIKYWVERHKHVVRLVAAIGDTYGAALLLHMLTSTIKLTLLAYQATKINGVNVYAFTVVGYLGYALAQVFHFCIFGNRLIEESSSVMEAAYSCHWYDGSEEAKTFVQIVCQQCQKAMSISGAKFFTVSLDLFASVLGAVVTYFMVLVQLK
# Method in brief: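 HEK293 lines stably expressing each Drosophila OR with GCaMP6, doxycycline-induced (1 μg/mL) 48 or 72 h. Fluorescence recorded 5 s baseline then 30 s after VOC injection at pH 7.3; ΔF=(FMAX−F0)/F0, normalized to 50 µM VUAA1 response per line, triplicate wells averaged; concentration series 0.01–100 μM.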
# [1] = ligand concentration 1 (unit not given)
# [2] = ligand concentration 10 (unit not given)
# [3] = ligand concentration 100 (unit not given)
SMILES,OR85b DoOR response (OR85b),OR10a DoOR response (OR10a),OR47a DoOR response (OR47a),OR13a DoOR response (OR13a),OR98a DoOR response (OR98a),OR49b DoOR response (OR49b),OR71a DoOR response (OR71a),activation at 1 µM (Drosophila OR85b) [%],activation at 10 µM (Drosophila OR85b) [%],activation at 100 µM (Drosophila OR85b) [%],Average response (Drosophila OR85b; cc. 1 µM),Average response (Drosophila OR85b; cc. 10 µM),Average response (Drosophila OR85b; cc. 100 µM),DF norm AVERAGE OR85b (Drosophila OR85b; [1]),DF norm AVERAGE OR85b (Drosophila OR85b; [2]),DF norm AVERAGE OR85b (Drosophila OR85b; [3])
CC1=CCC2CC1C2(C)C (stereo not drawn) [alpha-pinene],0.15,0.004,0.035,0.10,0.43,0.018,0.04,0,0,0,0.03,0.00,0.0358,0,0,0
CC1=CC[C@@H](C(C)(C)O)CC1 [alpha-terpineol],0.11,-0.005,0.018,0.023,0.033,0.006,0.008,0,0,0,0.05,0.03,0.02,0,0,0
O=Cc1ccccc1 [benzaldehyde],0.07,0.22,0.06,0.025,0.13,0.09,0.025,6,0,0,0.06,0.00,0.00,0.06124,0,0
CCOC(=O)c1ccccc1 [ethyl benzoate],-0.014,0.68,0.06,0.043,0.78,0.002,0.19,0,0,0,0.0211,0.0371,0.0138,0,0,0
CCCC(=O)OCC [ethyl butyrate],0.21,0.025,0.26,0.11,0.25,-0.002,0.046,0,0,0,0.00,0.0253,0.0224,0,0,0
